{
  "source": "patent US9649379B2",
  "about": "“Pharmaceutical composition and pharmaceutical kit for the treatment of hepatocellular carcinoma” (ALMA MATER STUDIORUM—UNIVERSITA' DI BOLOGNA, priority 2007, dated 2017)",
  "test_system": "Cleaved PARP",
  "experiment": "Apoptosis analysis: Western blot of cleaved PARP after doxorubicin",
  "assay_type": "cell-based, human",
  "settings": "doxorubicin 100 μg/ml, infected HepG2 cells",
  "method": "Stably infected cell populations of HepG2 cells were seeded into 6-well dishes and allowed to attach for 24 hours, washed and cultured in fresh complete medium with 100 ug/ml doxorubicin (Sigma) for 1 h, 3 h, 6 h, 12 h, 18 h and 24 h. Doxorubicin incorporation was detected by FACS counting of 10,000 events.\nCultured cells were dissolved in lysis buffer containing 10 mM Tris-HCl pH 7.4, 2.5 mM MgCl2, 1% TritonX 100, 1 mM DTT, 0.1 mM phenylmethylsulfonyl fluoride (PMSF), 1 mM Na3VO4, 1 mM NaF and protease inhibitors (Sigma Chemical Company, St. Louis, Mo.). The lysate was centrifuged at 4° C., 15,000×g, for 15 min and the supernatant assayed for protein concentration by Bio-Rad protein assay (Bio-Rad). […]\nAfter repeated washing in PBS containing 0.1% Tween 20 (PBST), membranes were incubated with anti-mouse or anti-rabbit HRP-conjugated secondary antibodies using the EnVision dextran polymer visualization system (Dako). […] Digital images of autoradiographs were acquired with a Fluor-S MultiImager scanner (BioRad) and signals were quantitated with Quantity-one densitometric software (BioRad, Hercules, Calif.) in absorbance units after light calibration with a reference autoradiograph.",
  "data": [
    {"smiles": "COc1cccc2c1C(=O)c1c(O)c3c(c(O)c1C2=O)C[C@@](O)(C(=O)CO)C[C@@H]3O[C@H]1C[C@H](N)[C@H](O)[C@H](C)O1", "note": "[Doxorubicin, doxorubicin]", "values": [
      {"measurement": "cleavage of PARP", "result": "caused cleavage of PARP"}
    ]}
  ]
}
